{"source": "patent US9186318B2", "about": "“Quinolyl-containing hydroxamic acid compound and preparation method thereof, and pharmaceutical composition containing this compound and use thereof” (Beijing Konruns Pharmaceutical Co., Ltd, priority 2011, dated 2015)", "assay_in_all_cases": "KinomeScan 96-kinase panel", "format_in_all_cases": "binding", "conditions_in_all_cases": "compound concentration 1000 nM", "key": {"[1]": {"biological_target": "ABL1(T315I)-phosphorylated (Homo sapiens (Human), UniProt P00519, T315I)", "from_the_text": "(§1) The details of the screening technology were described in Fabian, M. A. et al, Nat., Biotechnol. 2005, 23, 329 and Karaman, M. W. et al, Nat., Biotechnol. 2008, 26, 127. From the above representative results, it can be seen that the compounds of the present invention have potent inhibitory activities on kinases including ALK, AXL, VEGFR2, PDGFR-α, PDGFR-β, c-KIT, Flt3, MEK1, MEK2, CSF1R, EPHA2, EPHA2, MKNK2, SRC, TIE2 and their mutants. Accordingly, the compounds of the present invention can be used for the treatment of diseases caused by abnormal activities of these kinases, e.g., cancer, psoriasis, hepatic cirrhosis, diabetes, diseases involving angiogenesis, eye diseases, immune system diseases, cardiovascular diseases, and so forth."}, "ABL1-phosphorylated": {"biological_target": "ABL1-phosphorylated (Homo sapiens (Human), UniProt P00519)", "from_the_text": "as §1"}, "ADCK3": {"biological_target": "ADCK3 (Homo sapiens (Human), UniProt Q8NI60)", "sequence (Q8NI60 163-647)": "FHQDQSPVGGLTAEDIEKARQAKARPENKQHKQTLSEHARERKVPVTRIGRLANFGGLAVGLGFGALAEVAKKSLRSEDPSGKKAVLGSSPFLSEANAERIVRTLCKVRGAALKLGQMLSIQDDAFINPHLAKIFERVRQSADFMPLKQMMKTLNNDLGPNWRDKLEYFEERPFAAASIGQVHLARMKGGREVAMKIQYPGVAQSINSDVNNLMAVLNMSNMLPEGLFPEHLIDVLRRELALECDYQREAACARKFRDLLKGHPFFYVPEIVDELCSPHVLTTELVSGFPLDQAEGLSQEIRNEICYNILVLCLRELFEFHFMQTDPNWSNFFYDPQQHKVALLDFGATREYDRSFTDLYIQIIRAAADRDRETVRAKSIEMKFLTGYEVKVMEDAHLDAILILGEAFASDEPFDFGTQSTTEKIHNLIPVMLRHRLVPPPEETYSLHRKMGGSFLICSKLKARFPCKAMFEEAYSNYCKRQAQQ", "from_the_text": "as §1"}, "AKT2": {"biological_target": "AKT2 (Homo sapiens (Human), UniProt P31751)", "sequence (P31751 whole entry)": "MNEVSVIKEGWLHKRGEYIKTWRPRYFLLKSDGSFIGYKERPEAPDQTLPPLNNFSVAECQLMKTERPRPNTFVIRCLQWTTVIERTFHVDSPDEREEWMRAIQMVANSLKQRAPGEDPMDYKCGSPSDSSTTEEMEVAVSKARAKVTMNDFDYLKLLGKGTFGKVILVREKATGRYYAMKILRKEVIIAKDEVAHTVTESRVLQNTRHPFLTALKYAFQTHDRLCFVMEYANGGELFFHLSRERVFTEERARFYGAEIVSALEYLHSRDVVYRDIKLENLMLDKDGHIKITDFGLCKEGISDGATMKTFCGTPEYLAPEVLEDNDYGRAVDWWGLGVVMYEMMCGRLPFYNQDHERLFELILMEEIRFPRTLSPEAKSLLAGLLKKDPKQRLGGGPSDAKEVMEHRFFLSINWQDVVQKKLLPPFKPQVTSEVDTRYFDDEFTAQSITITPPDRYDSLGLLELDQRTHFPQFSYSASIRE", "from_the_text": "as §1"}, "AURKA": {"biological_target": "AURKA (Homo sapiens (Human), UniProt O14965)", "sequence (O14965 whole entry)": "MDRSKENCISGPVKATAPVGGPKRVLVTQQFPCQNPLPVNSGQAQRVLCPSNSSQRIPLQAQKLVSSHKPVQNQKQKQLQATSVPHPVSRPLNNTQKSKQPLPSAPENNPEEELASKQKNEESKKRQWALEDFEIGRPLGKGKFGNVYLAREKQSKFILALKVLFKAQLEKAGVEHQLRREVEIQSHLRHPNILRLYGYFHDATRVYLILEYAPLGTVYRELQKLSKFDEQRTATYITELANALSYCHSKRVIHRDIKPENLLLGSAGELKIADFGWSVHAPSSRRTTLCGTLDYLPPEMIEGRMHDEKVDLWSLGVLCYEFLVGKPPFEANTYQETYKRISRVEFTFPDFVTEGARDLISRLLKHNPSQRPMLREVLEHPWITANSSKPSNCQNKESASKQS", "from_the_text": "as §1"}, "CDK2": {"biological_target": "CDK2 (Homo sapiens (Human), UniProt P24941)", "from_the_text": "as §1"}, "CDK9": {"biological_target": "CDK9 (Homo sapiens (Human), UniProt P50750)", "from_the_text": "as §1"}, "EGFR": {"biological_target": "EGFR (Homo sapiens (Human), UniProt P00533)", "from_the_text": "as §1"}, "EPHA2": {"biological_target": "EPHA2 (Homo sapiens (Human), UniProt P29317)", "from_the_text": "as §1"}, "ERK1": {"biological_target": "ERK1 (Homo sapiens (Human), UniProt P27361)", "from_the_text": "as §1"}, "FGFR2": {"biological_target": "FGFR2 (Homo sapiens (Human), UniProt P21802)", "from_the_text": "as §1"}, "FLT3": {"biological_target": "FLT3 (Homo sapiens (Human), UniProt P36888)", "from_the_text": "as §1"}, "IKK-beta": {"biological_target": "IKK-beta (Homo sapiens (Human), UniProt O14920)", "from_the_text": "as §1"}, "[2]": {"biological_target": "JAK2 (JH1domain-catalytic) (Homo sapiens (Human), UniProt O60674)", "sequence (O60674 849-1124)": "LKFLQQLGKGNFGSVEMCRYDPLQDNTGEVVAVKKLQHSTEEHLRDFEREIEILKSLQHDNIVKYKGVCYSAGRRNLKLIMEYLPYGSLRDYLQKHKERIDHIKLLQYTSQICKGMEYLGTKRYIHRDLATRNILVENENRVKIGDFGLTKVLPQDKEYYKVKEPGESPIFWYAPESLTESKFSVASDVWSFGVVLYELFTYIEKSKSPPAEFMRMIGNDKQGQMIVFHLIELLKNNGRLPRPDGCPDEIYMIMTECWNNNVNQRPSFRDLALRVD", "from_the_text": "as §1"}, "JNK2": {"biological_target": "JNK2 (Homo sapiens (Human), UniProt P45984)", "from_the_text": "as §1"}, "JNK3": {"biological_target": "JNK3 (Homo sapiens (Human), UniProt P53779)", "from_the_text": "as §1"}, "LKB1": {"biological_target": "LKB1 (Homo sapiens (Human), UniProt Q15831)", "from_the_text": "as §1"}, "MAP3K4": {"biological_target": "MAP3K4 (Homo sapiens (Human), UniProt Q9Y6R4)", "from_the_text": "as §1"}, "MARK3": {"biological_target": "MARK3 (Homo sapiens (Human), UniProt P27448)", "from_the_text": "as §1"}, "MEK2": {"biological_target": "MEK2 (Homo sapiens (Human), UniProt P36507)", "from_the_text": "as §1"}, "MET": {"biological_target": "MET (Homo sapiens (Human), UniProt P08581)", "from_the_text": "as §1"}, "PAK1": {"biological_target": "PAK1 (Homo sapiens (Human), UniProt Q13153)", "from_the_text": "as §1"}, "PAK2": {"biological_target": "PAK2 (Homo sapiens (Human), UniProt Q13177)", "sequence (Q13177 whole entry)": "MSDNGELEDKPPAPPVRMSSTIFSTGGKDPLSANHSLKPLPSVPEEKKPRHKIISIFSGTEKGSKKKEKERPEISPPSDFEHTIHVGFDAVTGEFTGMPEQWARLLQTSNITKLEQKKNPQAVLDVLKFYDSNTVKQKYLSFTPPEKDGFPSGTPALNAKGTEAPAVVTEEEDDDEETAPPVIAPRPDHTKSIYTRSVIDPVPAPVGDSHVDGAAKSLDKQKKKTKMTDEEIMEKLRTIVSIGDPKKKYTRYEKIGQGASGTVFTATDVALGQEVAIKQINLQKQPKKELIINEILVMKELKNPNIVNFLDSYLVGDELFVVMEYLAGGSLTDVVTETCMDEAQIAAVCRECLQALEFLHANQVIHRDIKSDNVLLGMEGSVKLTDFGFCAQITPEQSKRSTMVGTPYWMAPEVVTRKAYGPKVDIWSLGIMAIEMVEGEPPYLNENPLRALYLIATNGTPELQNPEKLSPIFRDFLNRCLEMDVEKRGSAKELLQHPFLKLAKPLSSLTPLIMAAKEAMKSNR", "from_the_text": "as §1"}, "PIK3C2B": {"biological_target": "PIK3C2B (Homo sapiens (Human), UniProt O00750)", "from_the_text": "as §1"}, "PIK3CG": {"biological_target": "PIK3CG (Homo sapiens (Human), UniProt P48736)", "sequence (P48736 whole entry)": "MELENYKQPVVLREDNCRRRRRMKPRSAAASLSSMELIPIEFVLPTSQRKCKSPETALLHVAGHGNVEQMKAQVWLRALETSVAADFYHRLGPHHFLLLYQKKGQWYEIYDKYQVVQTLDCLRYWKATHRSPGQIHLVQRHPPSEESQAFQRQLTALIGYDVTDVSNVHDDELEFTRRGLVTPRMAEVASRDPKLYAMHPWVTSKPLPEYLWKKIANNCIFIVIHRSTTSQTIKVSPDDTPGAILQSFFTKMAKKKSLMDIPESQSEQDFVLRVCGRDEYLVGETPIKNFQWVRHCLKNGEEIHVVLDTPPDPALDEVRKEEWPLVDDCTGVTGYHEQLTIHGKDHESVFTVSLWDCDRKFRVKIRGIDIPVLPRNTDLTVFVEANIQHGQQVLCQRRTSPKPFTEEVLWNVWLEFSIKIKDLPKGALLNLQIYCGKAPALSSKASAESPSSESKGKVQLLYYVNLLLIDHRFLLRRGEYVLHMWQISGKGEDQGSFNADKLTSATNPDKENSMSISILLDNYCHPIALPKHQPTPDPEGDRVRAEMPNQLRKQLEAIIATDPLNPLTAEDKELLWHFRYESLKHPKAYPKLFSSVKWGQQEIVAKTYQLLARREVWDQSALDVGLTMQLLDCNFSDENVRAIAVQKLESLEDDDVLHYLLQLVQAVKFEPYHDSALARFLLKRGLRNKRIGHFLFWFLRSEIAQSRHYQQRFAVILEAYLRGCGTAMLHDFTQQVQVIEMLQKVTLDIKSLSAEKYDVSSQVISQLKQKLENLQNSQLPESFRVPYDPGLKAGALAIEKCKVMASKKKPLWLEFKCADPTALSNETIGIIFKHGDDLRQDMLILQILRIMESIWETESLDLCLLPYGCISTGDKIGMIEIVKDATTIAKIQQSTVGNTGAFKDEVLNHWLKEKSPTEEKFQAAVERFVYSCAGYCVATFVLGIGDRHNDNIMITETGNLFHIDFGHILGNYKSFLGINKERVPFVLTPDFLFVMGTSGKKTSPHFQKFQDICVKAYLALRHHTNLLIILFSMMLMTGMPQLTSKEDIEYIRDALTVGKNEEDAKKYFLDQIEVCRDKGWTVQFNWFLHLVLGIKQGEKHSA", "from_the_text": "as §1"}, "PIM3": {"biological_target": "PIM3 (Homo sapiens (Human), UniProt Q86V86)", "from_the_text": "as §1"}, "PKAC-alpha": {"biological_target": "PKAC-alpha (Homo sapiens (Human), UniProt P17612)", "from_the_text": "as §1"}, "PLK1": {"biological_target": "PLK1 (Homo sapiens (Human), UniProt P53350)", "sequence (P53350 whole entry)": "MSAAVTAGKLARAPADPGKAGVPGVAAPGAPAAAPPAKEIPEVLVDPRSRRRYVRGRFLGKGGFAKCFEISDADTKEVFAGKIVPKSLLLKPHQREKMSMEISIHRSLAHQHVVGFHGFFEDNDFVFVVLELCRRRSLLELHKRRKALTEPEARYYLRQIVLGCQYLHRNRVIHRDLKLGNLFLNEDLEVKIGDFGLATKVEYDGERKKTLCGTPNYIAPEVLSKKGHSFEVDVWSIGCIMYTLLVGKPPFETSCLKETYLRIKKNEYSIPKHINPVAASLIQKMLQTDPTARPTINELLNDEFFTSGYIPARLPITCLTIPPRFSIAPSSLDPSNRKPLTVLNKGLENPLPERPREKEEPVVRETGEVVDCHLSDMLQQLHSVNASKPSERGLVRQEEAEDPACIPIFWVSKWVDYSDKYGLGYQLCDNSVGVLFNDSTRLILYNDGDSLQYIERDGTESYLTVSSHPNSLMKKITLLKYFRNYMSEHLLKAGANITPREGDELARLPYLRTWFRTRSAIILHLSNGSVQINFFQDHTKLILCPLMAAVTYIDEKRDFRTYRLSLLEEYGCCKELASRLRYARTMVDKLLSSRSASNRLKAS", "from_the_text": "as §1"}, "PLK3": {"biological_target": "PLK3 (Homo sapiens (Human), UniProt Q9H4B4)", "from_the_text": "as §1"}, "PLK4": {"biological_target": "PLK4 (Homo sapiens (Human), UniProt O00444)", "from_the_text": "as §1"}, "RET": {"biological_target": "RET (Homo sapiens (Human), UniProt P07949)", "from_the_text": "as §1"}, "RIOK2": {"biological_target": "RIOK2 (Homo sapiens (Human), UniProt Q9BVS4)", "from_the_text": "as §1"}, "SNARK": {"biological_target": "SNARK (Homo sapiens (Human), UniProt Q9H093)", "from_the_text": "as §1"}, "SRC": {"biological_target": "SRC (Homo sapiens (Human), UniProt P12931)", "from_the_text": "as §1"}, "TSSK1B": {"biological_target": "TSSK1B (Homo sapiens (Human), UniProt Q9BXA7)", "from_the_text": "as §1"}, "[3]": {"biological_target": "TYK2 (JH1domain-catalytic) (Homo sapiens (Human), UniProt P29597)", "sequence (P29597 897-1176)": "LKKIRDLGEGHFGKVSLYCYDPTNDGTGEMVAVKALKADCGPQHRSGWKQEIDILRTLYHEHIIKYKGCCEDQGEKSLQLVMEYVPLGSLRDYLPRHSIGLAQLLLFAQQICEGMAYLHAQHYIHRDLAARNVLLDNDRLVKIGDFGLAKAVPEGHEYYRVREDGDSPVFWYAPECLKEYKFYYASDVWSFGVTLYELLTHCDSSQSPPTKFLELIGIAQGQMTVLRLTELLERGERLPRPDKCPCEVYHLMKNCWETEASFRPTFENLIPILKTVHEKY", "from_the_text": "as §1"}, "YANK3": {"biological_target": "YANK3 (Homo sapiens (Human), UniProt Q86UX6)", "sequence (Q86UX6 whole entry)": "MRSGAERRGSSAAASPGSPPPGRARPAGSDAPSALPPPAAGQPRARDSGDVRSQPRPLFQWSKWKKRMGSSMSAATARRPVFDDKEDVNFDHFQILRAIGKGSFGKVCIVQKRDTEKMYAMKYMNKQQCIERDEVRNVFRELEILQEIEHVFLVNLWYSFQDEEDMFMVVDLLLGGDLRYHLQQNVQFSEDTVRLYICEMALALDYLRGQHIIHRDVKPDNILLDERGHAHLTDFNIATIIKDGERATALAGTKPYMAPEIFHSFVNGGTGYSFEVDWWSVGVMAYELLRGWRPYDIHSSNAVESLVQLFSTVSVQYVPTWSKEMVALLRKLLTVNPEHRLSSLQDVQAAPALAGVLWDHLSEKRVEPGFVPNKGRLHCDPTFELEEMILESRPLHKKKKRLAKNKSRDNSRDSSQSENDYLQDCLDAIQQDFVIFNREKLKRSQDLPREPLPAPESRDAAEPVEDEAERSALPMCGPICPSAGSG", "from_the_text": "as §1"}, "p38-alpha": {"biological_target": "p38-alpha (Homo sapiens (Human), UniProt Q16539)", "sequence (Q16539 whole entry)": "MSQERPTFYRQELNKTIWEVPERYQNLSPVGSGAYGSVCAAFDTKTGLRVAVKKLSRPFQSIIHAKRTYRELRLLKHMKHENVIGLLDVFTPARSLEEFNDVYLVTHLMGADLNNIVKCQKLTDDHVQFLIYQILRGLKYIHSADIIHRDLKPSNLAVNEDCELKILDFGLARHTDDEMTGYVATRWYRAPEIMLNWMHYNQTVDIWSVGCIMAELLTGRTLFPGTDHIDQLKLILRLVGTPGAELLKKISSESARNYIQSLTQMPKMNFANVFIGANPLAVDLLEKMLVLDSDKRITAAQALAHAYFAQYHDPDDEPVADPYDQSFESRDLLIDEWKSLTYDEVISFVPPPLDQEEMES", "from_the_text": "as §1"}}}
{"compound": "COc1cc2c(Oc3ccc(NC(=O)C4(C(=O)Nc5ccc(F)cc5)CC4)cc3F)ccnc2cc1OCCCCCC(=O)NO", "note": "[Example 13, N1′-[3-fluoro-4-[[7-[6-(hydroxyamino)-6-oxohexyloxy]-6-methoxy-4-quinolyl]oxy]phenyl]-N1-(4-fluorophenyl)cyclopropane-1,1-dicarboxamide]", "values": [{"measurement": "% Ctrl@1000 nM", "setting": "[1]", "value": 19, "unit": "% Ctrl"}, {"measurement": "% Ctrl@1000 nM", "setting": "ABL1-phosphorylated", "value": 4.8, "unit": "% Ctrl"}, {"measurement": "% Ctrl@1000 nM", "setting": "ADCK3", "value": 100, "unit": "% Ctrl"}, {"measurement": "% Ctrl@1000 nM", "setting": "AKT2", "value": 100, "unit": "% Ctrl"}, {"measurement": "% Ctrl@1000 nM", "setting": "AURKA", "value": 5.2, "unit": "% Ctrl"}, {"measurement": "% Ctrl@1000 nM", "setting": "CDK2", "value": 73, "unit": "% Ctrl"}, {"measurement": "% Ctrl@1000 nM", "setting": "CDK9", "value": 67, "unit": "% Ctrl"}, {"measurement": "% Ctrl@1000 nM", "setting": "EGFR", "value": 6.8, "unit": "% Ctrl"}, {"measurement": "% Ctrl@1000 nM", "setting": "EPHA2", "value": 0.9, "unit": "% Ctrl"}, {"measurement": "% Ctrl@1000 nM", "setting": "ERK1", "value": 94, "unit": "% Ctrl"}, {"measurement": "% Ctrl@1000 nM", "setting": "FGFR2", "value": 65, "unit": "% Ctrl"}, {"measurement": "% Ctrl@1000 nM", "setting": "FLT3", "value": 0.85, "unit": "% Ctrl"}, {"measurement": "% Ctrl@1000 nM", "setting": "IKK-beta", "value": 78, "unit": "% Ctrl"}, {"measurement": "% Ctrl@1000 nM", "setting": "[2]", "value": 64, "unit": "% Ctrl"}, {"measurement": "% Ctrl@1000 nM", "setting": "JNK2", "value": 62, "unit": "% Ctrl"}, {"measurement": "% Ctrl@1000 nM", "setting": "JNK3", "value": 100, "unit": "% Ctrl"}, {"measurement": "% Ctrl@1000 nM", "setting": "LKB1", "value": 91, "unit": "% Ctrl"}, {"measurement": "% Ctrl@1000 nM", "setting": "MAP3K4", "value": 100, "unit": "% Ctrl"}, {"measurement": "% Ctrl@1000 nM", "setting": "MARK3", "value": 73, "unit": "% Ctrl"}, {"measurement": "% Ctrl@1000 nM", "setting": "MEK2", "value": 1.8, "unit": "% Ctrl"}, {"measurement": "% Ctrl@1000 nM", "setting": "MET", "value": 7.7, "unit": "% Ctrl"}, {"measurement": "% Ctrl@1000 nM", "setting": "PAK1", "value": 66, "unit": "% Ctrl"}, {"measurement": "% Ctrl@1000 nM", "setting": "PAK2", "value": 76, "unit": "% Ctrl"}, {"measurement": "% Ctrl@1000 nM", "setting": "PIK3C2B", "value": 99, "unit": "% Ctrl"}, {"measurement": "% Ctrl@1000 nM", "setting": "PIK3CG", "value": 66, "unit": "% Ctrl"}, {"measurement": "% Ctrl@1000 nM", "setting": "PIM3", "value": 100, "unit": "% Ctrl"}, {"measurement": "% Ctrl@1000 nM", "setting": "PKAC-alpha", "value": 100, "unit": "% Ctrl"}, {"measurement": "% Ctrl@1000 nM", "setting": "PLK1", "value": 100, "unit": "% Ctrl"}, {"measurement": "% Ctrl@1000 nM", "setting": "PLK3", "value": 100, "unit": "% Ctrl"}, {"measurement": "% Ctrl@1000 nM", "setting": "PLK4", "value": 0.55, "unit": "% Ctrl"}, {"measurement": "% Ctrl@1000 nM", "setting": "RET", "value": 0, "unit": "% Ctrl"}, {"measurement": "% Ctrl@1000 nM", "setting": "RIOK2", "value": 100, "unit": "% Ctrl"}, {"measurement": "% Ctrl@1000 nM", "setting": "SNARK", "value": 91, "unit": "% Ctrl"}, {"measurement": "% Ctrl@1000 nM", "setting": "SRC", "value": 0.15, "unit": "% Ctrl"}, {"measurement": "% Ctrl@1000 nM", "setting": "TSSK1B", "value": 50, "unit": "% Ctrl"}, {"measurement": "% Ctrl@1000 nM", "setting": "[3]", "value": 98, "unit": "% Ctrl"}, {"measurement": "% Ctrl@1000 nM", "setting": "YANK3", "value": 84, "unit": "% Ctrl"}, {"measurement": "% Ctrl@1000 nM", "setting": "p38-alpha", "value": 43, "unit": "% Ctrl"}]}
